Numbered stars: 1 amine (or outer) side, 2 acyl side, 3 side chain; on linkers, the order of the positions; unused ones are H or OH. Square brackets hold non-standard residues; d marks the D form. Side chains are listed from the residue outwards. Peptide text beside a SMILES is read from it. * marks the point of attachment. C20 diacid = O=C(O)CCCCCCCCCCCCCCCCCCC(=O)*; C18 diacid = O=C(O)CCCCCCCCCCCCCCCCC(=O)*; αMePhe(2-F) = C[C@](N)(Cc1ccccc1F)C(=O)O; γGlu = O=C(O)[C@H](CCC(=O)[*:2])N[*:1]; αMeF = C[C@](N)(Cc1ccccc1)C(=O)O; 4Pal = N[C@@H](Cc1ccncc1)C(=O)O; αMeL = CC(C)C[C@](C)(N)C(=O)O; AEEA = NCCOCCOCC(=O)O; Aib = CC(C)(N)C(=O)O
Assays:
human Gcg receptor = biological target: T1, human Gcg receptor (Homo sapiens, UniProt P47871); assay: [125I]-Glucagon binding (SPA), human Gcg receptor; conditions: read-out: hGLcgR Ki, nM (SEM, n)
T1 construct: expressed in transfected cells; crude membranes
T1 sequence (P47871 26-477): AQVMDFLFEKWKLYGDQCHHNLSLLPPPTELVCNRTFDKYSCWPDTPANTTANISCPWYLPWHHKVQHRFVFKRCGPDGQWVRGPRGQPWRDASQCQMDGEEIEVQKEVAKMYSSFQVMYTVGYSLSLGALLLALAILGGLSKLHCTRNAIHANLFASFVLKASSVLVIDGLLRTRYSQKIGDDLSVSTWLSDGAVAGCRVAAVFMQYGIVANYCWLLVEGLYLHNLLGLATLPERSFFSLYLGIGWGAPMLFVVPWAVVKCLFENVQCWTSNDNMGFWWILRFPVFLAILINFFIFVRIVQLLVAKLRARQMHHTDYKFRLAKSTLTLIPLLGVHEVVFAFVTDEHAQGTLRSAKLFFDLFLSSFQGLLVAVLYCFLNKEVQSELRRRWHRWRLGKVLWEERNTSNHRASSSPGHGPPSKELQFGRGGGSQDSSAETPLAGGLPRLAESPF
In short: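 Crude membranes from cells expressing the receptor, prepared by hypotonic lysis in 50 mM Tris HCl pH 7.5 with protease inhibitors, homogenization and differential centrifugation, were used in a WGA-bead SPA. Binding buffer: 25 mM HEPES pH 7.4, 2.5 mM CaCl2, 1 mM MgCl2, bacitracin, Tween-20.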

human GIP receptor = biological target: T2, human GIP receptor (Homo sapiens, UniProt P48546); assay: [125I]-GIP binding (SPA), human GIP receptor; conditions: read-out: hGIPR Ki, nM (SEM, n)
T2 construct: expressed in transfected cells; crude membranes
T2 sequence (P48546 22-466): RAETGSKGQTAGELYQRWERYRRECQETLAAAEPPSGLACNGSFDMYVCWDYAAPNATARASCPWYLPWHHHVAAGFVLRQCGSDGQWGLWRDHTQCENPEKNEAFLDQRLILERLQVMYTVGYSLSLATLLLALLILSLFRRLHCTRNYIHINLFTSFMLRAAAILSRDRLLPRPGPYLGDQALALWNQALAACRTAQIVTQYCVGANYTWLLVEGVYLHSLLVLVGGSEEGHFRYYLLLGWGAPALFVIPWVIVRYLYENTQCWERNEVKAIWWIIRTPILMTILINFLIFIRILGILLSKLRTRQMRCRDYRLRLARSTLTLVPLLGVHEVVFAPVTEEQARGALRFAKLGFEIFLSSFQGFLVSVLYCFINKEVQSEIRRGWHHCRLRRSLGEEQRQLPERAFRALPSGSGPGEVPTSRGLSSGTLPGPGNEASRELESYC

[1] = biological target: human GLP-1 receptor (GLP-1R) (Homo sapiens, UniProt P43220); assay: cAMP pharmacological functional assay in presence of casein, hGLP-1R; format: cell-based; conditions: HEK293 cells expressing hGLP-1R, 0.1% Casein, geometric mean; read-out: hGLP1R cAMP Rel EC50 nM (SEM, n)
Chain of human GLP-1 receptor (GLP-1R) (P43220 24-463): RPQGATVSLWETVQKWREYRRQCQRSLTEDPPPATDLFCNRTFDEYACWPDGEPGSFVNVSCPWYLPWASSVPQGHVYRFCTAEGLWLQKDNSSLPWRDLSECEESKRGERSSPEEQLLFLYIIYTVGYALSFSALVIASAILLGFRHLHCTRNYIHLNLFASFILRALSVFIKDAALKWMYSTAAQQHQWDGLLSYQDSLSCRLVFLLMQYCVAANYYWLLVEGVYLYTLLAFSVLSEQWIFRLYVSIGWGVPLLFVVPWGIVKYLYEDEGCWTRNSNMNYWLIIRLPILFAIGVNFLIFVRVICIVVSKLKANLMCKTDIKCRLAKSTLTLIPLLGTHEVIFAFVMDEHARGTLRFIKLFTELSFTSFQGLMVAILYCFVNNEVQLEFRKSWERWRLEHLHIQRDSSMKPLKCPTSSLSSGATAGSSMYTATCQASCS

[2] = biological target: T3, gastric inhibitory peptide receptor (GIPR) (Homo sapiens, UniProt P48546); assay: cAMP pharmacological functional assay in presence of casein, hGIPR; format: cell-based; conditions: HEK293 cells expressing hGIPR, 0.1% Casein, geometric mean; read-out: hGIPR cAMP Rel EC50 nM (SEM, n)
T3 sequence (P48546 22-466): T2 sequence (P48546 22-466)

human GLP-1R = human GLP-1R (Homo sapiens, UniProt P43220); assay: [125I]-GLP-1 binding (SPA), human GLP-1 receptor; design: expressed in transfected cells; crude membranes; conditions: read-out: hGLP1R Ki, (nM) (SEM, n)
Chain of human GLP-1R (P43220 24-463): as above
In short: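 Crude-membrane binding assay; one membrane prep included 1 mM MgCl2 and 25 units/ml DNAse I during lysis. Assay buffer at pH 7.4 contains 0.1% (w/v) bacitracin and 0.003% (w/v) TWEEN-20. Ki is reported as geometric mean.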

CC[C@H](C)[C@H](NC(=O)[C@H](CC(C)C)NC(=O)[C@H](Cc1ccc(O)cc1)NC(=O)[C@@H](CCC(=O)O)NC(=O)[C@@H](NC(=O)[C@H](Cc1ccccc1)NC(=O)[C@H](CCC(=O)O)NC(=O)C(C)(C)NC(=O)[C@H](CCC(N)=O)NC(=O)[C@H](C)NC(=O)[C@H](CCCCNC(=O)COCCOCCNC(=O)COCCOCCNC(=O)CC[C@H](NC(=O)CCCCCCCCCCCCCCCCC(=O)O)C(=O)O)NC(=O)[C@H](CCC(=O)O)NC(=O)[C@H](CC(=O)O)NC(=O)[C@H](CC(C)C)NC(=O)[C@](C)(CC(C)C)NC(=O)[C@@H](NC(=O)[C@H](CO)NC(=O)[C@H](Cc1ccc(O)cc1)NC(=O)[C@H](CC(=O)O)NC(=O)[C@H](CO)NC(=O)[C@@H](NC(=O)[C@](C)(Cc1ccccc1)NC(=O)[C@@H](NC(=O)CNC(=O)[C@H](CCC(=O)O)NC(=O)C(C)(C)NC(=O)[C@@H](N)Cc1ccc(O)cc1)[C@@H](C)O)[C@@H](C)O)[C@@H](C)CC)[C@@H](C)CC)C(=O)N[C@@H](CCC(=O)O)C(=O)NCC(=O)NCC(=O)N1CCC[C@H]1C(=O)N[C@@H](CO)C(=O)N[C@@H](CO)C(=O)NCC(=O)N[C@@H](C)C(=O)N1CCC[C@H]1C(=O)N1CCC[C@H]1C(=O)N1CCC[C@H]1C(=O)N[C@@H](CO)C(N)=O [Example 213] (H-Y[Aib]EGT[αMeF]TSDYSI[αMeL]LDEK([AEEA-AEEA-γGlu-C18 diacid])AQ[Aib]EFI[dE]YLIEGGPSSGAPPPS-NH2)
Ki (human Gcg receptor): 544 nM | Ki (human GIP receptor): 0.365 nM | EC50 [1]: 0.071 nM | EC50 [2]: 0.0523 nM | Ki (human GLP-1R): 2.75 nM

CC[C@H](C)[C@H](NC(=O)[C@H](CC(C)C)NC(=O)[C@H](Cc1ccc(O)cc1)NC(=O)[C@H](CCC(=O)O)NC(=O)[C@@H](NC(=O)[C@H](Cc1ccccc1)NC(=O)[C@H](C)NC(=O)C(C)(C)NC(=O)[C@H](CCC(N)=O)NC(=O)[C@H](C)NC(=O)[C@H](CCCCNC(=O)COCCOCCNC(=O)COCCOCCNC(=O)CC[C@H](NC(=O)CCCCCCCCCCCCCCCCC(=O)O)C(=O)O)NC(=O)[C@H](CCC(=O)O)NC(=O)[C@H](CC(=O)O)NC(=O)[C@H](CC(C)C)NC(=O)[C@H](CC(C)C)NC(=O)[C@@H](NC(=O)[C@H](CO)NC(=O)[C@H](Cc1ccc(O)cc1)NC(=O)[C@H](CC(=O)O)NC(=O)[C@H](CO)NC(=O)[C@@H](NC(=O)[C@H](Cc1ccccc1)NC(=O)[C@@H](NC(=O)CNC(=O)[C@H](CCC(=O)O)NC(=O)C(C)(C)NC(=O)[C@@H](N)Cc1ccc(O)cc1)[C@@H](C)O)[C@@H](C)O)[C@@H](C)CC)[C@@H](C)CC)C(=O)N[C@@H](CCC(=O)O)C(=O)NCC(=O)NCC(=O)N1CCC[C@H]1C(=O)N[C@@H](CO)C(=O)N[C@@H](CO)C(=O)NCC(N)=O [Example 268] (H-Y[Aib]EGTFTSDYSILLDEK([AEEA-AEEA-γGlu-C18 diacid])AQ[Aib]AFIEYLIEGGPSSG-NH2)
Ki (human Gcg receptor): > 1190 nM | Ki (human GIP receptor): 0.0814 nM | EC50 [1]: 0.0572 nM | EC50 [2]: 0.239 nM | Ki (human GLP-1R): 3.98 nM

CC[C@H](C)[C@H](NC(=O)[C@H](CC(C)C)NC(=O)[C@H](Cc1ccc(O)cc1)NC(=O)[C@H](CCC(=O)O)NC(=O)[C@@H](NC(=O)[C@H](Cc1ccccc1)NC(=O)[C@H](CCC(=O)O)NC(=O)C(C)(C)NC(=O)[C@H](CCC(N)=O)NC(=O)[C@H](C)NC(=O)[C@H](CCCCNC(=O)COCCOCCNC(=O)COCCOCCNC(=O)CC[C@H](NC(=O)CCCCCCCCCCCCCCCCCCC(=O)O)C(=O)O)NC(=O)[C@H](CCC(=O)O)NC(=O)[C@H](CC(=O)O)NC(=O)[C@H](CC(C)C)NC(=O)[C@](C)(CC(C)C)NC(=O)[C@@H](NC(=O)[C@H](CO)NC(=O)[C@H](Cc1c[nH]cn1)NC(=O)[C@H](CC(=O)O)NC(=O)[C@H](CO)NC(=O)[C@@H](NC(=O)[C@](C)(Cc1ccccc1F)NC(=O)[C@@H](NC(=O)CNC(=O)[C@H](CCC(=O)O)NC(=O)C(C)(C)NC(=O)[C@@H](N)Cc1ccc(O)cc1)[C@@H](C)O)[C@@H](C)O)[C@@H](C)CC)[C@@H](C)CC)C(=O)N[C@@H](CCC(=O)O)C(=O)NCC(=O)NCC(=O)N1CCC[C@H]1C(=O)N[C@@H](CO)C(=O)N[C@@H](CO)C(=O)NCC(=O)N[C@@H](C)C(=O)N1CCC[C@H]1C(=O)N1CCC[C@H]1C(=O)N1CCC[C@H]1C(=O)N[C@@H](CO)C(N)=O [Example 154] (H-Y[Aib]EGT[αMePhe(2-F)]TSDHSI[αMeL]LDEK([AEEA-AEEA-γGlu-C20 diacid])AQ[Aib]EFIEYLIEGGPSSGAPPPS-NH2)
Ki (human Gcg receptor): 762 nM | Ki (human GIP receptor): 0.061 nM | EC50 [1]: 0.0393 nM | EC50 [2]: 0.0266 nM | Ki (human GLP-1R): 5.64 nM

CC[C@H](C)[C@H](NC(=O)[C@H](CC(C)C)NC(=O)[C@H](Cc1ccc(O)cc1)NC(=O)[C@@H](CCC(=O)O)NC(=O)[C@@H](NC(=O)[C@H](Cc1ccccc1)NC(=O)[C@H](CCC(=O)O)NC(=O)C(C)(C)NC(=O)[C@H](CCC(N)=O)NC(=O)[C@H](C)NC(=O)[C@H](CCCCNC(=O)COCCOCCNC(=O)COCCOCCNC(=O)CCCCCCCCCCCCCCCCCCC(=O)O)NC(=O)[C@H](CCC(=O)O)NC(=O)[C@H](CC(=O)O)NC(=O)[C@H](CC(C)C)NC(=O)[C@](C)(CC(C)C)NC(=O)[C@@H](NC(=O)[C@H](CO)NC(=O)[C@H](Cc1ccncc1)NC(=O)[C@H](CC(=O)O)NC(=O)[C@H](CO)NC(=O)[C@@H](NC(=O)[C@](C)(Cc1ccccc1F)NC(=O)[C@@H](NC(=O)CNC(=O)[C@H](CCC(=O)O)NC(=O)C(C)(C)NC(=O)[C@@H](N)Cc1ccc(O)cc1)[C@@H](C)O)[C@@H](C)O)[C@@H](C)CC)[C@@H](C)CC)C(=O)N[C@@H](CCC(=O)O)C(=O)NCC(=O)NCC(=O)N1CCC[C@H]1C(=O)N[C@@H](CO)C(=O)N[C@@H](CO)C(=O)NCC(=O)N[C@@H](C)C(=O)N1CCC[C@H]1C(=O)N1CCC[C@H]1C(=O)N1CCC[C@H]1C(=O)N[C@@H](CO)C(N)=O [Example 206] (H-Y[Aib]EGT[αMePhe(2-F)]TSD[4Pal]SI[αMeL]LDEK([AEEA-AEEA-C20 diacid])AQ[Aib]EFI[dE]YLIEGGPSSGAPPPS-NH2; N-terminus assumed)
Ki (human Gcg receptor): 176 nM | Ki (human GIP receptor): 0.0814 nM | EC50 [1]: 0.027 nM | EC50 [2]: 0.0409 nM | Ki (human GLP-1R): 5.27 nM

CC[C@H](C)[C@H](NC(=O)[C@H](CCCCN)NC(=O)[C@H](CC(=O)O)NC(=O)[C@H](CC(C)C)NC(=O)[C@H](CC(C)C)NC(=O)[C@@H](NC(=O)[C@H](CO)NC(=O)[C@H](Cc1ccc(O)cc1)NC(=O)[C@H](CC(=O)O)NC(=O)[C@H](CO)NC(=O)[C@@H](NC(=O)[C@H](Cc1ccccc1)NC(=O)[C@@H](NC(=O)CNC(=O)[C@H](CCC(=O)O)NC(=O)C(C)(C)NC(=O)[C@@H](N)Cc1ccc(O)cc1)[C@@H](C)O)[C@@H](C)O)[C@@H](C)CC)C(=O)N[C@@H](C)C(=O)N[C@@H](CCC(N)=O)C(=O)NC(C)(C)C(=O)N[C@@H](C)C(=O)N[C@@H](Cc1ccccc1)C(=O)N[C@H](C(=O)N[C@@H](CCC(=O)O)C(=O)N[C@@H](Cc1ccc(O)cc1)C(=O)N[C@@H](CC(C)C)C(=O)N[C@H](C(=O)N[C@@H](CCC(=O)O)C(=O)NCC(=O)NCC(=O)N1CCC[C@H]1C(=O)N[C@@H](CO)C(=O)N[C@@H](CO)C(=O)NCC(=O)N[C@@H](C)C(=O)N[C@@H](CCCCNC(=O)COCCOCCNC(=O)COCCOCCNC(=O)CC[C@H](NC(=O)CCCCCCCCCCCCCCCCCCC(=O)O)C(=O)O)C(=O)N1CCC[C@H]1C(=O)N1CCC[C@H]1C(=O)N[C@@H](CO)C(N)=O)[C@@H](C)CC)[C@@H](C)CC [Example 45] (H-Y[Aib]EGTFTSDYSILLDKIAQ[Aib]AFIEYLIEGGPSSGAK([AEEA-AEEA-γGlu-C20 diacid])PPS-NH2)
Ki (human Gcg receptor): 11.1 nM | Ki (human GIP receptor): 0.0463 nM | EC50 [1]: 1.03 nM | EC50 [2]: 0.106 nM | Ki (human GLP-1R): 5.65 nM

Source: US12252524B2, “GIP/GLP1 co-agonist compounds” (Eli Lilly and Company, priority 2018, dated 2025)
